This is an account of results in BindingDB's records for patent US11787766 (Shanghai Ennovabio Pharmaceuticals, 2023).

Where only a bound is given, the exact number is not on record here.

Chain of Programmed cell death 1 ligand/protein 1 (Q9NZQ7 whole entry): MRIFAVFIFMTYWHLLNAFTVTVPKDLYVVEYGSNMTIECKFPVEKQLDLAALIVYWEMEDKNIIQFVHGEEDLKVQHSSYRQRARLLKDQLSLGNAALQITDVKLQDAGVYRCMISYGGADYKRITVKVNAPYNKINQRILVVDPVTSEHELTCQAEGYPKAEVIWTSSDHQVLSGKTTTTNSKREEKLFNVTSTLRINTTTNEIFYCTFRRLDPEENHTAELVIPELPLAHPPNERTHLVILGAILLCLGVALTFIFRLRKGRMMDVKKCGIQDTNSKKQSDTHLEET
Chain of Programmed cell death 1 ligand/protein 1 (Q15116 whole entry, further chain): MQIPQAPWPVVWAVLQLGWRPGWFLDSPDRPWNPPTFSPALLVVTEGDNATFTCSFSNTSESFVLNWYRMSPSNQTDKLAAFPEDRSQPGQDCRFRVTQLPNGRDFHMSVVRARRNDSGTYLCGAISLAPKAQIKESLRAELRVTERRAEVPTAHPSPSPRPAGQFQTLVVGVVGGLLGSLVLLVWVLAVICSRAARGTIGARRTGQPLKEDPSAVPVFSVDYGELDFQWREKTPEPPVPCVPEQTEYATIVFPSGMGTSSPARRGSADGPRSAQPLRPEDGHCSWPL

This assay addresses Programmed cell death 1 ligand/protein 1 (Homo sapiens, UniProt Q9NZQ7). Description: Homogeneous Time-Resolved Fluorescence (HTRF). An excerpt: PD1/PD-L1 binding assay kit (Cisbio, Cat #63ADK000CPDEC) was used, which includes two proteins, Tag 1-PD-L1 and Tag 2-PD-1, and two antibodies, Anti-Tag1-Eu3+ and Anti-Tag2-XL 665. Assay principle: Anti-tag1-Eu3+ is the HTRF donor, and Anti-Tag2-XL 665 is the HTRF acceptor. When Tag 1-PD-L1 and Tag 2-PD-1 interact, the added HTRF donor and the acceptor are close to each other. After the donor receives the excitation energy, it transfers part of the energy to the acceptor, thus producing 665 nm emission signal. When the compound is added to block the PD1/PD-L1 interaction, only 620 nm emission light was detected. The inhibitory effect of the compound was determined by analyzing the ratio of 665 nm/620 nm. Tag 1-PD-L1 was diluted with Diluent buffer (cat #62DLBDDF) to a working concentration of 10 nM, Tag 2-PD-1 was diluted with Diluent buffer to a working concentration of 500 nM, and Anti-Tag1-Eu3+ was diluted with detection buffer (cat #62DB1FDG) by 1:100, Anti-Tag2-XL 665 was diluted with detection buffer by 1:20, and the test compound was diluted with Diluent buffer to a final concentration of 2×. In a 384-well plate, 2 μL of compound was added to each well, and then 4 μL of Tag 1-PD-L1, 4 μL of Tag 2-PD-1 were added and incubated at room temperature for 15 minutes.
For orientation: In TR-FRET formats the signal depends on donor and acceptor labels being close together.
On to `COc1nc(OCc2cccc(-c3cccc(CO)c3C)c2C)ccc1CNCCNC(C)=O` [US11787766, Compound 2], for which the IC50 (in general, the point on the concentration scale where inhibition reaches its midpoint) is over 1 µM.

`COc1cc(OCc2cccc(-c3cccc(CO)c3C)c2C)cc(OC)c1CN` [US11787766, Compound 11] showed an IC50 of over 1 µM.

In the case of `COc1nc(OCc2cccc(-c3cccc(CO)c3C)c2C)ccc1CN` [US11787766, Compound 3], the IC50 is over 1 µM.

`COc1nc(OCc2cccc(-c3cccc(COc4ccc(CNCCNC(C)=O)c(OC)n4)c3C)c2C)ccc1C#N` [US11787766, Compound 17]: the IC50 is over 1 µM. In the case of `COc1nc(OCc2cccc(-c3cccc(CN)c3C)c2)ccc1CN` [US11787766, Compound 16] it was over 1 µM; in that of `COc1nc(OCc2cccc(-c3cccc(COc4ccc(CN5C[C@H](O)C[C@H]5CO)c(OC)n4)c3Cl)c2Cl)ccc1CN1C[C@H](O)C[C@H]1CO` [US11787766, Compound 69], under 0.01 µM; in that of `COc1nc(OCc2cccc(-c3cccc(COc4ccc(C#N)c(OC)n4)c3C)c2C)ccc1C#N` [US11787766, Compound 5], over 1 µM.

Take `COc1nc(OCc2cccc(-c3cccc(COc4ccc(CNCCNC(C)=O)c(OC)n4)c3Cl)c2C)ccc1CNCCNC(C)=O` [US11787766, Compound 30]: the IC50 is under 0.01 µM.
